Results published in patent US20260015350A1, “AZAQUINAZOLINE PAN-KRAS INHIBITORS” (Mirati Therapeutics, Inc., priority 2022, published 2026).

What was measured:
KRas^WT = target: T1, KRas^WT (Homo sapiens, UniProt P01116); assay: KRas binding assay (TR-FRET tracer displacement), KRas WT; settings: for IC50: TR-FRET tracer displacement, KRas WT
T1 construct: Biotinylated KRas (corresponding to amino acids 1-169, produced at Accelegan Inc.); biotin (biotinylated); purchased Accelegan Inc

[1] = tested on: KRas-mediated phosphorylation of ERK in H727 cells; assay: Inhibition of KRas-mediated phosphorylation of ERK (Cisbio HTRF pERK), H727 cells; format: cell-based; settings: Homo sapiens; for IC50: NCI-H727, H727 cells, HTRF pERK; for inhibition at 0.1 µM: NCI-H727, 3 h, single point, 100 nM compound, 3 hrs, H727 cells
How it was run: (§1)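 H358, H727, H460 and AsPC-1 cells seeded at 6,000/well, treated 3 hrs with 10-dose 3-fold dilutions from 10 uM (0.8% DMSO); 0.2 uM trametinib as min control. Lysed 40 min at 4° C; lysate incubated 2 hrs at room temperature with d2/cryptate antibodies, HTRF read.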

[2] = tested on: KRas-mediated phosphorylation of ERK in A549 cells; assay: Inhibition of KRas-mediated phosphorylation of ERK (Cisbio HTRF pERK), A549 cells; format: cell-based; settings: Homo sapiens; for inhibition at 0.1 µM: A549, 3 h, single point, 100 nM compound, 3 hrs
How it was run: (§2)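 6,000 cells/well; cpd 10 uM top, 3-fold x10, 0.8% DMSO final; 3 hr incubation; Min ctrl Trametinib 0.2 uM; lysis 40 min 4° C shaking; d2 + Cryptate Ab mix, 2 hr RT; HTRF read.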

[3] = tested on: KRas-mediated phosphorylation of ERK in H460 cells; assay: Inhibition of KRas-mediated phosphorylation of ERK (Cisbio HTRF pERK), H460 cells; format: cell-based; settings: Homo sapiens
How it was run: as §1

KRas^G12A = target: T2, KRas^G12A (Homo sapiens, UniProt P01116, G12A); assay: KRas binding assay (TR-FRET tracer displacement), KRas G12A; settings: for IC50: TR-FRET tracer displacement, KRas G12A
T2 construct: Biotinylated KRas (corresponding to amino acids 1-169, produced at Accelegan Inc.); biotin (biotinylated); purchased Accelegan Inc
T2 sequence (P01116 1-169 isoform P01116-2 G12A): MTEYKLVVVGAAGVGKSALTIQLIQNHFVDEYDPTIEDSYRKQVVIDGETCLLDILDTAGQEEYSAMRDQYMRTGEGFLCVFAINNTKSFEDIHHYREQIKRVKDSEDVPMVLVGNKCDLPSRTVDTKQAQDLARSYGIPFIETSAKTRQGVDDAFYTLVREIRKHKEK

KRas^Q61H = target: T3, KRas^Q61H (Homo sapiens, UniProt P01116, Q61H); assay: KRas binding assay (TR-FRET tracer displacement), KRas Q61H; settings: for IC50: TR-FRET tracer displacement, KRas Q61H
T3 construct: Biotinylated KRas (corresponding to amino acids 1-169, produced at Accelegan Inc.); biotin (biotinylated); purchased Accelegan Inc
T3 sequence (P01116 1-169 isoform P01116-2 Q61H): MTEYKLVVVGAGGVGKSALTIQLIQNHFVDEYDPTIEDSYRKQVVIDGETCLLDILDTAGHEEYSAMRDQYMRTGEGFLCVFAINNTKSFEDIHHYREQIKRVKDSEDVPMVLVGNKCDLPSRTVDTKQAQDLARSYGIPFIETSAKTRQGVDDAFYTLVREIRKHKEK

[4] = tested on: KRas-mediated phosphorylation of ERK in HCT116 cells; assay: Inhibition of KRas-mediated phosphorylation of ERK (Cisbio HTRF pERK), HCT116 cells; format: cell-based; settings: Homo sapiens
How it was run: as §2

KRas^G13D = target: T4, KRas^G13D (Homo sapiens, UniProt P01116, G13D); assay: KRas binding assay (TR-FRET tracer displacement), KRas G13D; settings: for IC50: TR-FRET tracer displacement, KRas G13D
T4 construct: Biotinylated KRas (corresponding to amino acids 1-169, produced at Accelegan Inc.); biotin (biotinylated); purchased Accelegan Inc
T4 sequence (P01116 1-169 isoform P01116-2 G13D): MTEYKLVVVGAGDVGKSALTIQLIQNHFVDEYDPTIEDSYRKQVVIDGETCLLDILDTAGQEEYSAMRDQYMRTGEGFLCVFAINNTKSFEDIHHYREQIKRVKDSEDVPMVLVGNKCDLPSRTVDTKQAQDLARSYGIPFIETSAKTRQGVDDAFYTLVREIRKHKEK

KRas^G12S = target: T5, KRas^G12S (Homo sapiens, UniProt P01116, G12S); assay: KRas binding assay (TR-FRET tracer displacement), KRas G12S; settings: for IC50: TR-FRET tracer displacement, KRas G12S
T5 construct: Biotinylated KRas (corresponding to amino acids 1-169, produced at Accelegan Inc.); biotin (biotinylated); purchased Accelegan Inc
T5 sequence (P01116 1-169 isoform P01116-2 G12S): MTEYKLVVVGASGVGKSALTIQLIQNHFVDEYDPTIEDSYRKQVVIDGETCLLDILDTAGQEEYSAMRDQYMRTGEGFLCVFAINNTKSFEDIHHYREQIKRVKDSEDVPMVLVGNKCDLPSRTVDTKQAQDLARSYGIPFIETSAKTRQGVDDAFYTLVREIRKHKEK

KRas^G12C = target: T6, KRas^G12C (Homo sapiens, UniProt P01116, G12C); assay: KRas binding assay (TR-FRET tracer displacement), KRas G12C; settings: for IC50: TR-FRET tracer displacement, KRas G12C
T6 construct: Biotinylated KRas (corresponding to amino acids 1-169, produced at Accelegan Inc.); biotin (biotinylated); purchased Accelegan Inc
T6 sequence (P01116 1-169 isoform P01116-2 G12C): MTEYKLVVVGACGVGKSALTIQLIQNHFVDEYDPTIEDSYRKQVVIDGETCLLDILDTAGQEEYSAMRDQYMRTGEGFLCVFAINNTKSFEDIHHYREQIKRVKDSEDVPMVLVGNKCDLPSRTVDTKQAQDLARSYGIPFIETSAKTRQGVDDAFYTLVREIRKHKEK

[5] = tested on: KRas-mediated phosphorylation of ERK in H358 cells; assay: Inhibition of KRas-mediated phosphorylation of ERK (Cisbio HTRF pERK), H358 cells; format: cell-based; settings: Homo sapiens; for inhibition at 0.1 µM: NCI-H358, 3 h, single point, 100 nM compound, 3 hrs
How it was run: as §1

[6] = tested on: KRas-mediated phosphorylation of ERK in AsPC-1 cells; assay: Inhibition of KRas-mediated phosphorylation of ERK (Cisbio HTRF pERK), AsPC-1 cells; format: cell-based; settings: Homo sapiens; for IC50: ASPC1, AsPC-1 cells, HTRF pERK; for inhibition at 0.1 µM: ASPC1, 3 h, single point, 100 nM compound, 3 hrs, AsPC-1 cells
How it was run: as §1

KRas^G12V = target: T7, KRas^G12V (Homo sapiens, UniProt P01116, G12V); assay: KRas binding assay (TR-FRET tracer displacement), KRas G12V
T7 construct: Biotinylated KRas (corresponding to amino acids 1-169, produced at Accelegan Inc.); biotin (biotinylated); purchased Accelegan Inc
T7 sequence (P01116 1-169 isoform P01116-2 G12V): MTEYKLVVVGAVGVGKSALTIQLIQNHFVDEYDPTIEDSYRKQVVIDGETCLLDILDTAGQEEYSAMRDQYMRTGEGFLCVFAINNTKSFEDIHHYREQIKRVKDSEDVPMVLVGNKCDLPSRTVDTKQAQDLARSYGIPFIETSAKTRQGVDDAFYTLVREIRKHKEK

KRas^G12R = target: T8, KRas^G12R (Homo sapiens, UniProt P01116, G12R); assay: KRas binding assay (TR-FRET tracer displacement), KRas G12R
T8 construct: Biotinylated KRas (corresponding to amino acids 1-169, produced at Accelegan Inc.); biotin (biotinylated); purchased Accelegan Inc
T8 sequence (P01116 1-169 isoform P01116-2 G12R): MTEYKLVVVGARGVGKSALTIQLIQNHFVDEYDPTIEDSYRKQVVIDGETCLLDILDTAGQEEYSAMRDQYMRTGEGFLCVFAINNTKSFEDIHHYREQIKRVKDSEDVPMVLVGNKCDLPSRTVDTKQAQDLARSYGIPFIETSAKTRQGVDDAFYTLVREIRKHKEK

KRas^G12D = target: T9, KRas^G12D (Homo sapiens, UniProt P01116, G12D); assay: KRas binding assay (TR-FRET tracer displacement), KRas G12D
T9 construct: Biotinylated KRas (corresponding to amino acids 1-169, produced at Accelegan Inc.); biotin (biotinylated); purchased Accelegan Inc
T9 sequence (P01116 1-169 isoform P01116-2 G12D): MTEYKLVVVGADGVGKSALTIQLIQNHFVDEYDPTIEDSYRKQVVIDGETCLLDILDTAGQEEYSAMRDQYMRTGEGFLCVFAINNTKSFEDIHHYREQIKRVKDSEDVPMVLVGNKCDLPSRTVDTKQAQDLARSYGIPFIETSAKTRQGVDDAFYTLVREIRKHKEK

[7] = single point, 10 nM compound, TR-FRET

T1 sequence (P01116 1-169 isoform P01116-2): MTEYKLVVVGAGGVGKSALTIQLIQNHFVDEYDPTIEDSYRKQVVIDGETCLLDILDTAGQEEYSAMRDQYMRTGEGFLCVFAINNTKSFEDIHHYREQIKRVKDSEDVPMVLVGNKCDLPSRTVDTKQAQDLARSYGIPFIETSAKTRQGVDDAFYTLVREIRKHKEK

| Compound | IC50 [1] | inhibition at 0.1 µM [2] | inhibition at 0.1 µM [5] | IC50 [6] | IC50 (KRas^WT) | IC50 (KRas^G12V) | inhibition at 0.1 µM [1] | IC50 (KRas^G12R) | IC50 (KRas^G12A) | IC50 (KRas^Q61H) | IC50 (KRas^G12D) | IC50 (KRas^G13D) | IC50 (KRas^G12S) | IC50 (KRas^G12C) | inhibition at 0.1 µM [6] | further results |
| --- | --- | --- | --- | --- | --- | --- | --- | --- | --- | --- | --- | --- | --- | --- | --- | --- |
| CCc1c(F)ccc2cc(O)cc(-c3ncc4c(N5CCC[C@]6(CCO6)C5)nc(OCC5(CN(C)C)CC5)nc4c3F)c12 [Example 699, (S)-4-(2-((1-((dimethylamino)methyl)cyclopropyl)methoxy)-8-fluoro-4-(1-oxa-6-azaspiro[3.5]nonan-6-yl)pyrido[4,3-d]pyrimidin-7-yl)-5-ethyl-6-fluoronaphthalen-2-ol] | 6 nM | 80% | 101% | 2 nM |  |  |  |  |  |  |  |  |  |  |  | inhibition at 0.01 µM (KRas^WT; [7]): 91%; IC50 ([2]; HTRF pERK): 2 nM; inhibition at 0.1 µM ([3]; NCI-H460, 3 h, single point, 100 nM compound, 3 hrs): 95%; IC50 ([3]; NCI-H460, HTRF pERK): 5 nM; inhibition at 0.01 µM (KRas^G12A; [7]): 87%; inhibition at 0.01 µM (KRas^Q61H; [7]): 96%; inhibition at 0.1 µM ([4]; HCT-116, 3 h, single point, 100 nM compound, 3 hrs): 82%; IC50 ([4]; HCT-116, HTRF pERK): 14 nM; inhibition at 0.01 µM (KRas^G13D; [7]): 96%; inhibition at 0.01 µM (KRas^G12S; [7]): 93%; inhibition at 0.01 µM (KRas^G12C; [7]): 96%; IC50 ([5]; NCI-H358, HTRF pERK): 3 nM |
| Cc1cc2[nH]c(=O)[nH]c2c(-c2ncc3c(N4CCC[C@@](C)(O)C4)nc(OCC45CCCN4CCC5)nc3c2F)c1C [Example 733, 4-(8-fluoro-4-((R)-3-hydroxy-3-methylpiperidin-1-yl)-2-((tetrahydro-1H-pyrrolizin-7a(5H)-yl)methoxy)pyrido[4,3-d]pyrimidin-7-yl)-5,6-dimethyl-1,3-dihydro-2H-benzo[d]imidazol-2-one] |  | 7% | -2% |  | 1370 nM | 1050 nM | -10% | 2670 nM | 1520 nM | 2280 nM | 933 nM | 1410 nM | 1400 nM | 1520 nM | -27% |  |
| CN(C)C(=O)c1cc2n(n1)CCCN(c1nc(OCC34CCCN3CCC4)nc3c(F)c(-c4c5ccccc5cc5[nH]ncc45)ncc13)C2 [Example 757, 5-(7-(1H-benzo[f]indazol-4-yl)-8-fluoro-2-((hexahydro-1H-pyrrolizin-7a-yl)methoxy)pyrido[4,3-d]pyrimidin-4-yl)-N,N-dimethyl-5,6,7,8-tetrahydro-4H-pyrazolo[1,5-a][1,4]diazepine-2-carboxamide] | > 10000 nM | 2% | 10% | 9840 nM | 141 nM | 42 nM |  | 101 nM | 82 nM | 203 nM | 12 nM | 238 nM | 43 nM | 46 nM |  |  |
| Oc1cc2ccccc2c(-c2ncc3c(N4C[C@@H]5C[C@H](C4)[C@H](O)C5)nc(OC[C@@]45CCCN4C[C@H](F)C5)nc3c2F)c1F [Example 751, (1R,5R,6R)-3-(8-fluoro-7-(2-fluoro-3-hydroxynaphthalen-1-yl)-2-(((2R,7aS)-2-fluorohexahydro-1H-pyrrolizin-7a-yl)methoxy)pyrido[4,3-d]pyrimidin-4-yl)-3-azabicyclo[3.2.1]octan-6-ol] | 3830 nM | -10% | -17% | 5220 nM | 167 nM | 93 nM | -50% | 139 nM | 136 nM | 185 nM | 372 nM | 172 nM | 91 nM | 165 nM | -2% |  |
| Oc1cc(-c2ncc3c(N4C[C@@H]5C[C@H](C4)[C@H](O)C5)nc(OC[C@@]45CCCN4C[C@H](F)C5)nc3c2F)c2ccccc2c1Br [Example 781, (1R,5R,6R)-3-(7-(4-bromo-3-hydroxynaphthalen-1-yl)-8-fluoro-2-(((2R,7aS)-2-fluorohexahydro-1H-pyrrolizin-7a-yl)methoxy)pyrido[4,3-d]pyrimidin-4-yl)-3-azabicyclo[3.2.1]octan-6-ol] | > 10000 nM | -24% | 10% | 8950 nM | 754 nM | 727 nM |  | 778 nM | 716 nM | 891 nM | 2450 nM | 551 nM | 414 nM | 635 nM |  |  |
